Tests used:
[1] = tested on: T98G, GBM10, and GBM43 cells; experiment: Lamellipodia formation and membrane ruffling (F-actin staining); assay type: cell-based, human; conditions: 5 μM PPF 1 hour prior to 10% FBS for 5 min
Procedure: FIGS. 28A and 28B depict that PPF suppresses GBM cell membrane ruffling. FIG. 28A—GBM43 cells were preincubated with 5 μM PPF or vehicle for 1 hour prior to 10% FBS stimulation for 5 min. After FBS stimulation, cells were fixed, permeabilized, and stained for F-actin. For each experimental condition, at least 12 images were taken randomly. Arrowhead indicates membrane ruffles. FIG. 28B—Graph depicts the average lamellipodia in T98G, GBM10, and GBM43 cells in the presence or absence of 10% FBS with or without 5 μM PPF as indicated. Lamellipodia were traced using Image J software.
Referring now to FIGS. 28A and 28B: The inventors investigated lamellipodia formation and membrane ruffling. Briefly, glioma cells were plated onto 10-well glass slides pre-coated with 10 μg/ml laminin at the density of 3000 cells/well for 24 hours at 37° C. Subsequently, cells were serum starved for 16 hours. The cells were pre-incubated with 5 μM PPF or vehicle for 1 hour prior to 10% FBS stimulation for 5 min. After FBS stimulation, cells were fixed in 4% PFA, permeabilized with 0.1% Triton X-100, and incubated with Alexa Fluor® 555 Phalloidin (Invitrogen) to stain for F-actin. Slides were mounted with ProLong® reagent with DAPI and imaged using a Zeiss LSM 510 microscope. For each experimental condition, at least 12 images were randomly taken. Lamellipodia were traced using ImageJ software.

CNS-1 rat model = conditions: systemic PPF treatment; cited from earlier work
T98G and GBM43 cells = experiment: Clonogenic survival assay, PPF with TMZ or radiation; assay type: cell-based, human
Procedure: FIGS. 26A, 26B, and 26C depict that PPF sensitizes GBM cells to TMZ and radiotherapy. FIG. 26A—A clonogenic assay was used to assess T98G and GBM43 cells survival after TMZ and radiation treatment. Cells were pre-treated with 5 μM PPF for 24 hours, and then either treated with 250 μM TMZ for 24 hours or exposed to 2 Gy radiation. Graph depicts the surviving fraction in the treated cells compared to vehicle (VC) treated or non-treated (NT) cells, **p<0.01. FIG. 26B—T98G glioma cells were treated with vehicle, PPF (5 μM) TMZ (250 μM) and PPF in combination with TMZ. TMZ-induced apoptosis was assayed by immunoblot analysis of cell lysates with an antibody to cleaved PARP. Immunoblotting for α-Tubulin was included as a loading control. FIG. 26C—T98G, GBM10, and GBM43 cells were treated with PPF ([…], and then immunoblotted to assess the activation of AKT and NF-κB. Immunoblotting for β-Actin is included as a loading control.
Referring now to FIGS. 26A, 26B, and 26C: Knockdown of TROY expression with shRNA decreases TMZ resistance in GBM cells in vitro (See Reference 42). […] Following combination therapy, cells were trypsinized, counted, and plated in a 6-well culture dish at densities of 100, 250, and 500 cells per well in triplicate. Cells were incubated for 12 days then fixed, stained with 0.5% crystal violet solution, and counted manually by blinded observers. […]

[2] = tested on: T98G, GBM10, and GBM43 glioma cells; experiment: Matrigel invasion assay; assay type: cell-based, human; conditions: 5 μM PPF, 24 hours, 10% FBS
Procedure: FIGS. 27A and 27B depict that PPF suppresses GBM cell invasion and Rac1 activation. FIG. 27A—T98G, GBM10, and GBM43 glioma cells were treated with 5 μM PPF and invasion was assayed over 24 hours utilizing a Matrigel® invasion assay, *p<0.05. FIG. 27B—T98G glioma cells were serum starved, pre-incubated with 5 μM PPF or vehicle for 1 hour, and then stimulated with 10% FBS for 2-10 mins. Cell lysates were harvested and equal concentrations of protein were assessed for Rac1 activation.
Referring now to FIGS. 27A and 27B: The inventors next examined whether PPF inhibited TROY dependent glioma cell invasion. […] Briefly, 5.0×10^5 cells glioma cells were seeded in 100-mm diameter culture dishes and incubated overnight at 37° C. Subsequently, cells were serum starved for 16 hours at 37° C. Cells were then harvested, re-suspended in growth factor reduced Matrigel® (Becton Dickinson) (1.0×10^5 cells/50 μL), added in triplicates to collagen-coated transwell chambers, and allowed to invade through Matrigel® in presence of 10% FBS and/or 5 μM PPF. After incubation for 24 hours at 37° C. non-invaded cells were scrapped off the upper side of the membrane and cells invaded to the other side of the membrane were fixed with 4% paraformaldehyde (PFA) (Affymetrix) and stained with DAPI (Invitrogen). Nuclei of invaded cells were counted in five high power fields (HPF) with a 20× objective.

[3] = clinical trials for Alzheimer's disease and vascular dementia; cited from earlier work

CCCn1cnc2c1c(=O)n(CCCCC(C)=O)c(=O)n2C [PPF, 3-methyl-1-(5-oxohexyl)-7-propyl-3,7-dihydro-1H-purine-2,6-dione]
lamellipodia formation and membrane ruffling [1]: significantly decreased | tumor growth (CNS-1 rat model): decreased tumor growth | surviving fraction (T98G and GBM43 cells; 5 μM PPF 24 hours then 250 μM TMZ 24 hours, compared to TMZ alone, T98G and GBM43): significantly decreased the surviving fraction | surviving fraction (T98G and GBM43 cells; 5 μM PPF 24 hours then 2Gy radiation, compared to 2Gy radiation alone): significantly decreased the surviving fraction | glioma cell invasion [2]: significantly inhibited glioma cell invasion | side effect profile [3]: minimal side effect profile
